Measured values published in patent US20220073532A1, “INHIBITORS OF CGAS ACTIVITY AS THERAPEUTIC AGENTS” (BELLBROOK LABS, LLC, priority 2019, published 2022).
pIC50: −log10 of the molar value. Where two headings read alike, the source gives them in different places.

Biological target: cGAS (Homo sapiens, UniProt Q8N884)
Experiment: cGAS enzymatic assay (FP/TR-FRET detection of cGAMP)
Type: biochemical
Set-up: The cGAS assay was used to screen 100,000 compounds with full-length human cGAS; 6xHis; made in house
Details: cGAS (30 nM)
Method: Some exemplary compounds of the disclosure were tested for inhibition of cGAS (30 nM). The results are provided in Table 1 where “A” indicates an IC50 of less than 100 nM, “B” indicates an IC50 of greater than 100 nM and less than 500 nM, “C” indicates an IC50 of greater than 500 nM and less than 1 μM, “D” indicates an IC50 of greater than 1 μM and less than 10 μM, and “E” indicates an IC50 of greater than 10 μM.
A homogenous cGAS enzymatic assay was developed with fluorescence polarization (FP) and time-resolved Forster resonance energy transfer (TR-FRET) readouts (FIG. 2A-2D). The cGAS assay was used to screen 100,000 compounds with full-length human cGAS (FIG. 2E), resulting in the identification of the novel chemotype of the disclosure, two of which are further developed in a structure-driven hit-to-lead study (Table 3, below). The assay performance was robust, as indicated by respective Z and Z′ values of 0.59 and 0.63 in the screen; compounds with polarization values greater than three SDs from the mean were considered hits; a scatterplot from 10 plates (3,200 compounds) is shown in FIG. 2D.
Biochemical and biophysical analysis: Potency and MOA studies, including Mn^2+ sensitivity, are performed using the cGAS enzymatic assay. Dose response experiments are used to determine IC50 values under basal conditions (5 mM MgCl2, 100 μM ATP/GTP), and with the addition of physiological levels of Mn (0.2 mM) using human and mouse cGAS. Ligand optimization is driven by potency with the human enzyme; potency with mouse cGAS informs selection of an appropriate disease model for efficacy studies. Competition with ATP and GTP is assessed by comparing basal IC50 values to those in the presence of saturating ATP or GTP, and subsequently confirmed by measuring velocity vs. substrate at varying ATP or GTP levels. Inhibitor residence times (1/koff) are used as a key parameter for prioritizing compounds and driving SAR, because a longer residence time often results from an allosteric mechanism, and can also correlate with improved cellular activity. The cGAS enzymatic assay is used with the jump dilution method to measure residence times (inhibitor dissociation rates), as described for kinases using the very similar ADP assay. Biophysical methods, including SPR and TSA, are used as orthologous methods for residence time measurements and kd estimates.

[1] = with Mn^2+, read-out: Inhibition cGAS + Mn^2+

Chain of cGAS (Q8N884 whole entry): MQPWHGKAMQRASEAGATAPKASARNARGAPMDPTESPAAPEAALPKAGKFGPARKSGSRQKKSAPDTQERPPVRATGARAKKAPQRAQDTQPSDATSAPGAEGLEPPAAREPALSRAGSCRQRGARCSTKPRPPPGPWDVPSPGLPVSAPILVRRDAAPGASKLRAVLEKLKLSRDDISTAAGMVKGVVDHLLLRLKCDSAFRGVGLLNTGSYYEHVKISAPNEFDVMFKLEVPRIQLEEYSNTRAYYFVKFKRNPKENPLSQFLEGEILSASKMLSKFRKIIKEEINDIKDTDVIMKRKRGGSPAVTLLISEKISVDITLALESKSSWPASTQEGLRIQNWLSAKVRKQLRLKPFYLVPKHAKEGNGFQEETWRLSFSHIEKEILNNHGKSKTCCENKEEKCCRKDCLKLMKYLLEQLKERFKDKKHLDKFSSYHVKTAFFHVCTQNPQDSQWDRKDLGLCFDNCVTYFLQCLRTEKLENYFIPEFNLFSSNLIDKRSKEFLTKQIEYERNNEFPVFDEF

Structure (SMILES) | Inhibition cGAS | pIC50 [1] | pIC50 (read-out: Inhibition cGAS)
Cc1nc(N2C[C@@H](NC(=O)Cc3cc[nH]n3)C[C@H]2C(=O)O)c2oc3ccccc3c2n1 [Compound 31, (2S,4S)-4-(2-(1H-pyrazol-3-yl)acetamido)-1-(2-methylbenzofuro[3,2-d]pyrimidin-4-yl)pyrrolidine-2-carboxylic acid] | B, D |  | 
O=C(O)[C@@H]1CCCN1c1nc(-c2ccncc2)nc2c1oc1ccccc12 [Compound 18, (2-(pyridin-4-yl)benzofuro[3,2-d]pyrimidin-4-yl)-L-proline] |  | < 5.00 | < 5.00
Cc1nc(N2C[C@@H](Nc3n[nH]cc3-c3ccccn3)C[C@H]2C(=O)O)c2oc3ccccc3c2n1 [Compound 63, (2S,4S)-1-(2-methylbenzofuro[3,2-d]pyrimidin-4-yl)-4-((4-(pyridin-2-yl)-1H-pyrazol-3-yl)amino)pyrrolidine-2-carboxylic acid] |  | 5.00 to 6.00 | 5.00 to 6.00
Cc1nc(N2C[C@@H](Cc3nnn[nH]3)C[C@H]2CO)c2oc3ccccc3c2n1 [Compound 65, ((2S,4R)-4-((1H-tetrazol-5-yl)methyl)-1-(2-methylbenzofuro[3,2-d]pyrimidin-4-yl)pyrrolidin-2-yl)methanol] |  | 5.00 to 6.00 | 5.00 to 6.00
N#Cc1nc(N2CCC[C@H]2C(=O)O)c2oc3ccccc3c2n1 [Compound 22, (2-cyanobenzofuro[3,2-d]pyrimidin-4-yl)-L-proline] |  | 5.00 to 6.00 | 5.00 to 6.00
Cc1nc(N2CCC[C@H]2C(=O)O)c2oc3cc(F)ccc3c2n1 [Compound 69, (7-fluoro-2-methylbenzofuro[3,2-d]pyrimidin-4-yl)-L-proline] |  | 5.00 to 6.00 | 6.00 to 6.30
O=C(O)[C@@H]1CCCN1c1nc(C2CCC2)nc2c1oc1ccccc12 [Compound 11, (2-cyclobutylbenzofuro[3,2-d]pyrimidin-4-yl)-L-proline] |  | < 5.00 | 5.00 to 6.00
Cc1nc(N2CC[C@H]2C(=O)O)c2oc3ccccc3c2n1 [Compound 68, (S)-1-(2-methylbenzofuro[3,2-d]pyrimidin-4-yl)azetidine-2-carboxylic acid] |  | 5.00 to 6.00 | 6.00 to 6.30
Cc1cncc(CC(=O)N[C@H]2C[C@@H](C(=O)O)N(c3nc(C)nc4c3oc3ccccc34)C2)c1 [Compound 42, (2S,4S)-1-(2-methylbenzofuro[3,2-d]pyrimidin-4-yl)-4-(2-(5-methylpyridin-3-yl)acetamido)pyrrolidine-2-carboxylic acid] |  |  | 6.00 to 6.30
CCc1nc(N2CC[C@H]2C(=O)O)c2oc3ccccc3c2n1 [Compound 19, (S)-1-(2-ethylbenzofuro[3,2-d]pyrimidin-4-yl)azetidine-2-carboxylic acid] |  | 5.00 to 6.00 | 5.00 to 6.00
Cc1nc(N2C[C@@H](CC(=O)NC3CCCC3)C[C@H]2C(=O)O)c2oc3ccccc3c2n1 [Compound 51, (2S,4R)-4-(2-(cyclopentylamino)-2-oxoethyl)-1-(2-methylbenzofuro[3,2-d]pyrimidin-4-yl)pyrrolidine-2-carboxylic acid] |  | 5.00 to 6.00 | 6.30 to 7.00
Cc1nc(NCC(=O)O)c2oc3ccccc3c2n1 [Compound 2, (2-methylbenzofuro[3,2-d]pyrimidin-4-yl)glycine] |  | < 5.00 | 5.00 to 6.00
CCc1nc(N2CCC[C@H]2C(=O)O)c2oc3ccccc3c2n1 [Compound 7, (2-ethylbenzofuro[3,2-d]pyrimidin-4-yl)-L-proline] |  | 5.00 to 6.00 | 5.00 to 6.00
CO[C@H]1C[C@@H](C(=O)O)N(c2nc(C)nc3c2oc2ccccc23)C1 [Compound 23, (2S,4S)-4-methoxy-1-(2-methylbenzofuro[3,2-d]pyrimidin-4-yl)pyrrolidine-2-carboxylic acid] |  | < 5.00 | 5.00 to 6.00
Cc1nc(N2C[C@@H](CC(=O)Nc3ccccn3)C[C@H]2C(=O)O)c2oc3ccccc3c2n1 [Compound 46, (2S,4R)-1-(2-methylbenzofuro[3,2-d]pyrimidin-4-yl)-4-(2-oxo-2-(pyridin-2-ylamino)ethyl)pyrrolidine-2-carboxylic acid] |  |  | 5.00 to 6.00
CC(C)(C(=O)N[C@H]1C[C@@H](C(=O)O)N(c2nc(C(F)(F)F)nc3c2oc2ccccc23)C1)c1cn[nH]c1 [Compound 58, (2S,4S)-4-(2-methyl-2-(1H-pyrazol-4-yl)propanamido)-1-(2-(trifluoromethyl)benzofuro[3,2-d]pyrimidin-4-yl)pyrrolidine-2-carboxylic acid] |  | 5.00 to 6.00 | 6.00 to 6.30

Results, then the compound that gave them:

Inhibition cGAS | pIC50 [1] | pIC50 (read-out: Inhibition cGAS) | Structure (SMILES)
 | < 5.00 | 5.00 to 6.00 | O=C(O)CNc1nc(-c2ccccc2)nc2c1oc1ccccc12 [Compound 5, (2-phenylbenzofuro[3,2-d]pyrimidin-4-yl)glycine]
 |  | 6.00 to 6.30 | Cc1nc(N2C[C@@H](CC(N)=O)C[C@H]2C(=O)O)c2oc3ccccc3c2n1 [Compound 45, (2S,4R)-4-(2-amino-2-oxoethyl)-1-(2-methylbenzofuro[3,2-d]pyrimidin-4-yl)pyrrolidine-2-carboxylic acid]
 |  | 5.00 to 6.00 | Cc1nc(N2C[C@@H](NC(N)=O)C[C@H]2C(=O)O)c2oc3ccccc3c2n1 [Compound 43, (2S,4S)-1-(2-methylbenzofuro[3,2-d]pyrimidin-4-yl)-4-ureidopyrrolidine-2-carboxylic acid]
 |  | 6.30 to 7.00 | Cc1nc(N2C[C@@H](NC(=O)Cc3ccc(N)nc3)C[C@H]2C(=O)O)c2oc3ccccc3c2n1 [Compound 33, (2S,4S)-4-(2-(6-aminopyridin-3-yl)acetamido)-1-(2-methylbenzofuro[3,2-d]pyrimidin-4-yl)pyrrolidine-2-carboxylic acid]
 | 5.00 to 6.00 | 6.30 to 7.00 | Cc1nc(N2C[C@@H](Nc3n[nH]cc3C(C)C)C[C@H]2C(=O)O)c2oc3ccccc3c2n1 [Compound 59, (2S,4S)-4-((4-isopropyl-1H-pyrazol-3-yl)amino)-1-(2-methylbenzofuro[3,2-d]pyrimidin-4-yl)pyrrolidine-2-carboxylic acid]
 |  | 6.30 to 7.00 | Cc1nc(N2C[C@@H](NC(=O)C(C)(C)c3ccncc3)C[C@H]2C(=O)O)c2oc3ccccc3c2n1 [Compound 29, (2S,4S)-4-(2-methyl-2-(pyridin-4-yl)propanamido)-1-(2-methylbenzofuro[3,2-d]pyrimidin-4-yl)pyrrolidine-2-carboxylic acid]
 | < 5.00 | 5.00 to 6.00 | CC(C)c1nc(N2CCC[C@H]2C(=O)O)c2oc3ccccc3c2n1 [Compound 9, (2-isopropylbenzofuro[3,2-d]pyrimidin-4-yl)-L-proline]
 |  | 6.30 to 7.00 | Cc1nc(N2C[C@@H](Nc3n[nH]cc3C)C[C@H]2C(=O)O)c2oc3ccccc3c2n1 [Compound 27, (2S,4S)-4-((4-methyl-1H-pyrazol-3-yl)amino)-1-(2-methylbenzofuro[3,2-d]pyrimidin-4-yl)pyrrolidine-2-carboxylic acid]
 |  | 6.00 to 6.30 | Cc1nc(N2C[C@@H](NC(=O)Cc3ccnc(C(N)=O)c3)C[C@H]2C(=O)O)c2oc3ccccc3c2n1 [Compound 50, (2S,4S)-4-(2-(2-carbamoylpyridin-4-yl)acetamido)-1-(2-methylbenzofuro[3,2-d]pyrimidin-4-yl)pyrrolidine-2-carboxylic acid]
 |  | 6.00 to 6.30 | Cc1nc(N2C[C@@H](NC(=O)Cc3cccnc3N)C[C@H]2C(=O)O)c2oc3ccccc3c2n1 [Compound 49, (2S,4S)-4-(2-(2-aminopyridin-3-yl)acetamido)-1-(2-methylbenzofuro[3,2-d]pyrimidin-4-yl)pyrrolidine-2-carboxylic acid]
 | < 5.00 | < 5.00 | O=C(O)C1CCCN(c2ncnc3c2oc2ccccc23)C1 (stereo not drawn) [Compound 6, 1-(benzofuro[3,2-d]pyrimidin-4-yl)piperidine-3-carboxylic acid]
 |  | 6.00 to 6.30 | Cc1nc(N2C[C@@H](NC(=O)Cc3c[nH]cn3)C[C@H]2C(=O)O)c2oc3ccccc3c2n1 [Compound 40, (2S,4S)-4-(2-(1H-imidazol-4-yl)acetamido)-1-(2-methylbenzofuro[3,2-d]pyrimidin-4-yl)pyrrolidine-2-carboxylic acid]
B, D |  |  | Cc1nc(N2C[C@@H](Nc3cccnc3)C[C@H]2C(=O)O)c2oc3ccccc3c2n1 [Compound 39, (2S,4S)-1-(2-methylbenzofuro[3,2-d]pyrimidin-4-yl)-4-(pyridin-3-ylamino)pyrrolidine-2-carboxylic acid]
 | 5.00 to 6.00 | 5.00 to 6.00 | CCc1nc(N(C)CC(=O)O)c2oc3ccccc3c2n1 [Compound 16, N-(2-ethylbenzofuro[3,2-d]pyrimidin-4-yl)-N-methylglycine]
